A short description of experiment [1]: Inhibitory concentration for cytotoxic activity against human ocular melanoma IPC227F cells upon incubation for 48 h at 37 °C; No inhibition.
The nature of experiment [2]: Inhibitory concentration for cytotoxic activity against human ocular melanoma IPC227F cells upon incubation for 48 h at 37 °C.

Where a SMILES comes first, the peptide text is derived from it. The star is where a group is joined. Cbz = O=C(OCc1ccccc1)*

As for `CCN(CC)CCNC(=O)c1ccc(C(=O)N[C@H](C=O)CC(C)C)cc1`, the IC50 – broadly, the concentration at which inhibition is half-maximal – in experiment [1] was “Not Active”. In experiment [2], `CCN(CC)CCNC(=O)c1ccc(C(=O)N[C@@H](Cc2ccccc2)C(=O)N[C@H](C=O)CC(C)C)cc1` yielded an IC50 of 20900 nM. That is a double-digit micromolar value. The same measure, in the same setting: with `CC(C)C[C@@H](C=O)NC(=O)[C@H](CC(C)C)NC(=O)[C@H](CC(C)C)NC(=O)OCc1ccccc1` [MG-132] (Cbz-Leu-Leu-Leu-aldehyde) the figure was 77 nM. Regarding `CCN(CC)CCNC(=O)c1ccc(C(=O)N[C@@H](CC(C)C)C(=O)N[C@H](C=O)CC(C)C)cc1`, the IC50 entry in experiment [1] is on record as “Not Active”. The compound `CCN(CC)CCNC(=O)c1ccc(C(=O)N[C@@H](Cc2ccccc2)C(=O)N[C@@H](CC(C)C)C(=O)N[C@H](C=O)CC(C)C)cc1` registered an IC50 in experiment [2] of 11900 nM. Still for that read-out and setting: with `CCN(CC)CCNC(=O)c1ccc(C(=O)N[C@@H](CC(C)C)C(=O)N[C@@H](Cc2ccccc2)C(=O)N[C@H](C=O)CC(C)C)cc1` the figure was 2840 nM; with `CCN(CC)CCNC(=O)c1ccc(C(=O)N[C@@H](CC(C)C)C(=O)N[C@@H](CC(C)C)C(=O)N[C@H](C=O)CC(C)C)cc1`, 640 nM.

(Values after ChEMBL document CHEMBL1140449, “Preliminary studies of new proteasome inhibitors in the tumor targeting approach: synthesis and in vitro cytotoxicity” (J Med Chem, 2005).)
